Assay results published in BindingDB's records for doi:10.1124/jpet.301.2.661 (University of Arkansas, 2002).
Several values for one entry are separate records, joined by “and”; a condition that tells them apart may be missing. Identical values can stand only once. Square brackets hold non-standard residues; d marks the D form. Peptide text beside a SMILES is read from it. * marks the point of attachment. Tyr(Nα,Nα-allyl2) = C=CCN(CC=C)[C@@H](Cc1ccc(O)cc1)C(=O)*; Tic = O=C(O)[C@@H]1Cc2ccccc2CN1; Aib = CC(C)(N)C(=O)O

Molecular target: Delta-type opioid receptor (Homo sapiens, UniProt P41143)
Sequence (P41143 whole entry): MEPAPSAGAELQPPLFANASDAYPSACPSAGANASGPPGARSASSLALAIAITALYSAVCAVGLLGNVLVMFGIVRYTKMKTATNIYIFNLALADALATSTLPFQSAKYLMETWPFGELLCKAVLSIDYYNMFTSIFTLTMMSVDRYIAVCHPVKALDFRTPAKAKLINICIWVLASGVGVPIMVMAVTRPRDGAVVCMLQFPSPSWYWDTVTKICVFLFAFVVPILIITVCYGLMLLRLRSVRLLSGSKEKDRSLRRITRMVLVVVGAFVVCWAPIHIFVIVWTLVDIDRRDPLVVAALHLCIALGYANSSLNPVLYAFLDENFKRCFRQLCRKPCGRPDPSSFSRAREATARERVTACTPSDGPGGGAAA

C=CCN(CC=C)[C@@H](Cc1ccc(O)cc1)C(=O)NC(C)(C)C(=O)NC(C)(C)C(=O)N[C@@H](Cc1ccccc1)C(=O)N[C@@H](CC(C)C)C(=O)O [NSC_107691] ({Tyr(Nα,Nα-allyl2)}-[Aib][Aib]FL-OH)
Ki: 304 nM

N[C@@H](Cc1ccc(O)cc1)C(=O)N1Cc2ccccc2C[C@H]1C(=O)N[C@@H](Cc1ccccc1)C(=O)N[C@@H](Cc1ccccc1)C(=O)O [TIPP] (H-Y[Tic]FF-OH)
Ki: 5.8 nM and 3.02 nM
